Measurements: ChEMBL document CHEMBL1649270, “ST-246 inhibits in vivo poxvirus dissemination, virus shedding, and systemic disease manifestation” (2009)
Activity calls are given as the source filed them. The calls are words filed in the database; no cut-off is given here.

Experiments:
Vaccinia virus WR [1] = assay: Antiviral activity against Vaccinia virus WR ATCC VR-1354 infected through dermal scarification route in BALB/c mouse assessed as reduction of viral load in brain at 100 mg/kg, po qd measured after 14 days postinfection by RT-PCR analysis relative to control; format: functional, organism-based; parameters: dose 100 mg/kg
Vaccinia virus WR [2] = assay: Antiviral activity against Vaccinia virus WR ATCC VR-1354 infected through intravenous route in BALB/c mouse assessed as reduction of viral load in spleen at 100 mg/kg, po qd measured after 14 days postinfection by RT-PCR analysis relative to control; format: functional, organism-based; parameters: dose 100 mg/kg
Vaccinia virus WR [3] = assay: Antiviral activity against Vaccinia virus WR ATCC VR-1354 infected through intravenous route in BALB/c mouse assessed as reduction of viral load in blood at 100 mg/kg, po qd measured after 14 days postinfection by RT-PCR analysis relative to control; format: functional, organism-based; parameters: dose 100 mg/kg
Vaccinia virus WR [4] = assay: Antiviral activity against Vaccinia virus WR ATCC VR-1354 infected through intravenous route in BALB/c mouse assessed as reduction of viral load in brain at 100 mg/kg, po qd measured after 3 days postinfection by RT-PCR analysis relative to control; format: functional
Vaccinia virus WR [5] = assay: Antiviral activity against Vaccinia virus WR ATCC VR-1354 infected through intravenous route in BALB/c mouse assessed as reduction of viral load in liver at 100 mg/kg, po qd measured after 14 days postinfection by RT-PCR analysis relative to control; format: functional, organism-based; parameters: dose 100 mg/kg
Vaccinia virus WR [6] = assay: Antiviral activity against Vaccinia virus WR ATCC VR-1354 infected through subcutaneous route in BALB/c mouse assessed as reduction of viral load in lung at 100 mg/kg, po qd measured after 3 to 5 days postinfection by RT-PCR analysis relative to control; format: functional
Vaccinia virus WR [7] = assay: Antiviral activity against Vaccinia virus WR ATCC VR-1354 infected through intraperitoneal route in BALB/c mouse assessed as reduction of viral load in spleen at 100 mg/kg, po qd measured after 3 days postinfection by RT-PCR analysis relative to control; format: functional, organism-based; parameters: dose 100 mg/kg
Vaccinia virus WR [8] = assay: Antiviral activity against Vaccinia virus WR ATCC VR-1354 infected through intraperitoneal route in BALB/c mouse assessed as reduction of viral load in blood at 100 mg/kg, po qd measured after 5 days postinfection by RT-PCR analysis relative to control; format: functional, organism-based; parameters: dose 100 mg/kg
Vaccinia virus WR [9] = assay: Antiviral activity against Vaccinia virus WR ATCC VR-1354 infected through intraperitoneal route in BALB/c mouse assessed as reduction of viral load in lung at 100 mg/kg, po qd measured after 5 days postinfection by RT-PCR analysis relative to control; format: functional, organism-based; parameters: dose 100 mg/kg
Vaccinia virus WR [10] = assay: Antiviral activity against Vaccinia virus WR ATCC VR-1354 in african green monkey BSC-40 cells infected with 7 day postinfection nasal fluid from 100 mg/kg, po qd compound treated BALB/c mouse infected through percutaneous route assessed as reduction of viral attachment to cells by plaque titration assay; format: functional
Vaccinia virus WR [11] = assay: Antiviral activity against Vaccinia virus WR ATCC VR-1354 infected through percutaneous route in BALB/c mouse assessed as protection against virus-induced death at 100 mg/kg, po qd for 5 to 14 days; format: functional, organism-based; parameters: dose 100 mg/kg
Vaccinia virus WR [12] = assay: Antiviral activity against Vaccinia virus WR ATCC VR-1354 infected through dermal scarification route in BALB/c mouse assessed as protection against virus-induced systemic disease symptoms at 100 mg/kg, po qd measured after 9 days postinfection; format: functional, organism-based; parameters: dose 100 mg/kg
Vaccinia virus WR [13] = assay: Antiviral activity against Vaccinia virus WR ATCC VR-1354 infected through percutaneous route in BALB/c mouse assessed as inhibition of virus dissemination in spleen at 100 mg/kg, po qd for 1 day by RT-PCR analysis relative to control; format: functional
Vaccinia virus WR [14] = assay: Antiviral activity against Vaccinia virus WR ATCC VR-1354 infected through percutaneous route in BALB/c mouse assessed as protection against virus-induced satellite lesion formation on tails at 100 mg/kg, po qd measured after 6 days postinfection; format: functional, organism-based; parameters: dose 100 mg/kg
Vaccinia virus WR [15] = assay: Antiviral activity against Vaccinia virus WR ATCC VR-1354 infected through percutaneous route in BALB/c mouse assessed as protection against virus-induced conjunctivitis in mouse eyes at 100 mg/kg, po qd measured after 6 days postinfection; format: functional, organism-based; parameters: dose 100 mg/kg
Vaccinia virus WR [16] = assay: Antiviral activity against Vaccinia virus WR ATCC VR-1354 infected through dermal scarification route in BALB/c mouse assessed as protection against virus-induced satellite lesion formation on tails at 100 mg/kg, po qd measured after 6 days postinfection; format: functional, organism-based; parameters: dose 100 mg/kg
Vaccinia virus WR [17] = assay: Antiviral activity against Vaccinia virus WR ATCC VR-1354 infected through intravenous route in BALB/c mouse assessed as protection against virus-induced satellite lesion formation on tails at 100 mg/kg, po qd measured after 6 days postinfection; format: functional, organism-based; parameters: dose 100 mg/kg
Vaccinia virus WR [18] = assay: Antiviral activity against Vaccinia virus WR ATCC VR-1354 infected through subcutaneous route in BALB/c mouse assessed as protection against virus-induced conjunctivitis in mouse eyes at 100 mg/kg, po qd measured after 6 days postinfection; format: functional, organism-based; parameters: dose 100 mg/kg
Vaccinia virus WR [19] = assay: Antiviral activity against Vaccinia virus WR ATCC VR-1354 infected through intraperitoneal route in BALB/c mouse assessed as protection against virus-induced satellite lesion formation on tails at 100 mg/kg, po qd measured after 6 days postinfection; format: functional, organism-based; parameters: dose 100 mg/kg
Vaccinia virus WR [20] = assay: Antiviral activity against Vaccinia virus WR ATCC VR-1354 infected through percutaneous route in BALB/c mouse assessed as reduction of viral load in lungs at 100 mg/kg, po qd measured after 5 days postinfection by RT-PCR analysis relative to control; format: functional
Vaccinia virus WR [21] = assay: Antiviral activity against Vaccinia virus WR ATCC VR-1354 infected through percutaneous route in BALB/c mouse assessed as reduction of viral load in spleen at 100 mg/kg, po qd measured after 5 days postinfection by RT-PCR analysis relative to control; format: functional
Vaccinia virus WR [22] = assay: Antiviral activity against Vaccinia virus WR ATCC VR-1354 infected through percutaneous route in BALB/c mouse assessed as reduction of viral load in blood at 100 mg/kg, po qd measured after 7 days postinfection by RT-PCR analysis relative to control; format: functional, organism-based; parameters: dose 100 mg/kg
Vaccinia virus WR [23] = assay: Antiviral activity against Vaccinia virus WR ATCC VR-1354 infected through percutaneous route in BALB/c mouse assessed as reduction of viral load in spleen at 100 mg/kg, po qd measured after 7 days postinfection by RT-PCR analysis relative to control; format: functional, organism-based; parameters: dose 100 mg/kg
Vaccinia virus WR [24] = assay: Antiviral activity against Vaccinia virus WR ATCC VR-1354 infected through percutaneous route in BALB/c mouse assessed as reduction of viral load in liver at 100 mg/kg, po qd measured after 7 days postinfection by RT-PCR analysis relative to control; format: functional, organism-based; parameters: dose 100 mg/kg
Vaccinia virus WR [25] = assay: Antiviral activity against Vaccinia virus WR ATCC VR-1354 infected through dermal scarification route in BALB/c mouse assessed as reduction of viral load in blood at 100 mg/kg, po qd measured after 14 days postinfection by RT-PCR analysis relative to control; format: functional, organism-based; parameters: dose 100 mg/kg
Vaccinia virus WR [26] = assay: Antiviral activity against Vaccinia virus WR ATCC VR-1354 infected through dermal scarification route in BALB/c mouse assessed as reduction of viral load in spleen at 100 mg/kg, po qd measured after 14 days postinfection by RT-PCR analysis relative to control; format: functional, organism-based; parameters: dose 100 mg/kg

SMILES: O=C(NN1C(=O)[C@@H]2[C@@H]3C=C[C@@H]([C@H]4C[C@@H]34)[C@@H]2C1=O)c1ccc(C(F)(F)F)cc1 [TECOVIRIMAT]
- Activity (Vaccinia virus WR [1]): Active
- Activity (Vaccinia virus WR [2]): Active
- Activity (Vaccinia virus WR [3]): Active
- fold change (FC) (Vaccinia virus WR [4]): 23
- Activity (Vaccinia virus WR [5]): Active
- fold change (FC) (Vaccinia virus WR [6]): 30
- Activity (Vaccinia virus WR [7]): inactive
- Activity (Vaccinia virus WR [8]): Active
- Activity (Vaccinia virus WR [9]): Active
- fold change (FC) (Vaccinia virus WR [10]): 22
- Activity (Vaccinia virus WR [11]): Active
- Activity (Vaccinia virus WR [12]): Active
- fold change (FC) (Vaccinia virus WR [13]): 17
- Activity (Vaccinia virus WR [14]): Active
- Activity (Vaccinia virus WR [15]): Active
- Activity (Vaccinia virus WR [16]): Active
- Activity (Vaccinia virus WR [17]): Active
- Activity (Vaccinia virus WR [18]): Active
- Activity (Vaccinia virus WR [19]): Active
- fold change (FC) (Vaccinia virus WR [20]): 3.5
- fold change (FC) (Vaccinia virus WR [21]): 44000
- Activity (Vaccinia virus WR [22]): Active
- Activity (Vaccinia virus WR [23]): Active
- Activity (Vaccinia virus WR [24]): Active
- Activity (Vaccinia virus WR [25]): Active
- Activity (Vaccinia virus WR [26]): Active
